The values below come from patent US20080153869A1, “Kinase Inhibitors” (priority 2004, published 2008).

The target of assay [1] is T1, AIK (Homo sapiens, UniProt O14965).
T1 sequence (O14965 1-403): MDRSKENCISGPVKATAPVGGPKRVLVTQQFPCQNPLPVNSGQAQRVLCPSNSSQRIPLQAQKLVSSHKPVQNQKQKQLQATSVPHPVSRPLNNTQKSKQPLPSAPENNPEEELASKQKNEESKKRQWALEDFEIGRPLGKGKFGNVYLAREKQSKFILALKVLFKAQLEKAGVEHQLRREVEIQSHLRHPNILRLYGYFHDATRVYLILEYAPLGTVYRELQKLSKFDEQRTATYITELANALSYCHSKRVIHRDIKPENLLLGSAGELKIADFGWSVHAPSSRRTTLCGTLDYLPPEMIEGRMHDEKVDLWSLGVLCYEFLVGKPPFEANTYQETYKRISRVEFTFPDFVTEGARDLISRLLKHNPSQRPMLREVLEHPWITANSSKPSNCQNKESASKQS
Kind of assay: Inhibition of AIK, Direct Fluorescence Polarization (IMAP). To be noted: FP assay, 2.5 uM ATP, 2.5 nM AIK. The class given is biochemical. The protocol:
The inhibitory properties of compounds relative to AIK may be determined by the Direct Fluorescence Polarization detection method (FP) using a Greiner small volume black 384-well-plate format under the following reaction conditions: 50 mM Hepes pH 7.3, 10 mM MgCl2, 10 mM NaCl, 1 mM DTT, 0.01% Brij35, 100 nM Fluorescein-LRRASLG peptide (provided by SYNPEP), 5% DMSO, 2.5 uM ATP. Detection of the reaction product is performed by addition of IMAP binding reagent (Molecular Devices). Reaction product may be determined quantitatively by FP using an Analyst HT plate reader (Molecular Devices) with an excitation wavelength at 485 nm and emission at 530 nm and using a Fluorescein 505 dichroic mirror.
The assay reaction may be initiated as follows: 2 ul of (3×) 300 nM Fl-Peptide/7.5 uM ATP was added to each well of the plate, followed by the addition of 2 ul of (3×) inhibitor (2.5 fold serial dilutions for 11 data points for each inhibitor) containing 15% DMSO. 2 ul of (3×) 7.5 nM AIK solution may be added to initiate the reaction (final enzyme concentration was 2.5 nM for AIK). […] Fluorescence polarization readings of the resulting reaction mixtures may be measured after a 60-minute incubation at room temperature.
IC50 values may be calculated by non-linear curve fitting of the compound concentrations and fluorescent polarization values to the standard IC50 equation.

Assay [2] addresses c-KIT (Homo sapiens, UniProt P10721). The assay can be described thus: Inhibition of c-KIT, TR-FRET. The class given is biochemical. To be noted: TR-FRET assay, 100 uM ATP, 0.13 nM c-Kit.

Bounds are passed on as bounds.

Sequence of c-KIT (P10721 26-976): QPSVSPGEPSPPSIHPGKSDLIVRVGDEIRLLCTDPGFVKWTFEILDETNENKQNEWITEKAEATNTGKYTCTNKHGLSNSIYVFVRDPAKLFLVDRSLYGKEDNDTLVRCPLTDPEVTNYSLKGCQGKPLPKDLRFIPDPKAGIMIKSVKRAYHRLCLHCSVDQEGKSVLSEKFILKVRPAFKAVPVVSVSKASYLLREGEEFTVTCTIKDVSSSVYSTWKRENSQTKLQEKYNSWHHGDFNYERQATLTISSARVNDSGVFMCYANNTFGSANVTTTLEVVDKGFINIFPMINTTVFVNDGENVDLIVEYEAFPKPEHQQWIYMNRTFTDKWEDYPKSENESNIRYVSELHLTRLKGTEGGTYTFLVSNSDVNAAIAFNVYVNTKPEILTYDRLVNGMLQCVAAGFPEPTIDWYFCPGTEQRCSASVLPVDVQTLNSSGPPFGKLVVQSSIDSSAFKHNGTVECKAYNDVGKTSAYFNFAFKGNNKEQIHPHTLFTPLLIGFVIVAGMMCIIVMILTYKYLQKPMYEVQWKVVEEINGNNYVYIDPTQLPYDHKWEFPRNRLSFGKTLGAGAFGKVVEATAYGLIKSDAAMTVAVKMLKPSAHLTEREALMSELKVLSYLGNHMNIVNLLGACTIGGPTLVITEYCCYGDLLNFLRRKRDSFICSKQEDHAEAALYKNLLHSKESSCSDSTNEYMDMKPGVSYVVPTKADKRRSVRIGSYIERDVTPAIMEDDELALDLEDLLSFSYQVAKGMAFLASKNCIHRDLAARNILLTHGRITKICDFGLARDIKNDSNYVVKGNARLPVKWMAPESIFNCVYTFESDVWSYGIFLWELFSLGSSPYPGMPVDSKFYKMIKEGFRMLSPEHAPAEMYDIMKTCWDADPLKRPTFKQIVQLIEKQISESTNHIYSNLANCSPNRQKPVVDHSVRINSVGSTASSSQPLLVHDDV

For the molecule `Cc1cc(-c2c(O)[nH]c3ccccc23)nc(N)n1` [Example 1, 3-(2-Amino-6-methyl-pyrimidin-4-yl)-1H-indol-2-ol], the IC50 in assay [1] and in assay [2] was less than 100 µM in each case.
